In patent US20100041694A1, “AGRICULTURAL COMPOSITION FOR CONTROLLING OR PREVENTING PLANT DISEASES CAUSED BY PLANT PATHOGENIC MICROBES” (Sumitomo Chemical Company, Limited, priority 2007, published 2010):

Key:
Magnaporthe grisea = assay type: in vivo; conditions: rice (Nihonbare), flowable formulation 500 ppm foliage application; five days after the inoculation
Plasmopara viticola = assay: Treating grape downy mildew, foliage application; assay type: in vivo; conditions: grape (Berry-A), infected nursery plants, flowable formulation 500 ppm foliage application after inoculation (curative)
Method: Test Regarding Effects of Treating Grape Downy Mildew (Plasmopara viticola)
A plastic pot was filled with sandy soil, and grape (variety: Berry-A) was then disseminated. The grape plants were allowed to grow in a green house for 40 days. A water suspension of zoosporangium of Plasmopara viticola was inoculated to the aforementioned pot by spaying it. Thereafter, the grape plants were left at 23° C. at a high humidity for 1 day, and they were then air-dried, so as to obtain grape downy mildew-infected nursery plants. The aforementioned flowable formulation comprising compound 189 was set at a predetermine concentration (500 ppm) by diluting with water, and it was then subjected to foliage application such that it could be sufficiently attached to the leaves of the aforementioned nursery grape plants. After completion of the foliage application, the plants were subjected to air-drying, and they were then left at 23° C. in a green house for 5 days. Thereafter, the plants were further left at 23° C. at a high humidity for 1 day. Thereafter, the infected areas thereof were examined.

SMILES	infected areas of treated plants relative to infected areas of untreated plants (Magnaporthe grisea) [%]	infected areas of treated plants relative to infected areas of untreated plants (Plasmopara viticola) [%]
O=C(NCc1ccc(OC(F)F)cc1)c1ccc2ncccc2c1 [Compound 56]	≤ 30	–
Cc1ccc(CNC(=O)c2ccc3ncsc3c2)cc1 [Compound 189]	–	≤ 10
